The record followed here is ChEMBL document CHEMBL5653631, “A Potent and Selective ULK1 Inhibitor Suppresses Autophagy and Sensitizes Cancer Cells to Nutrient Stress” (iScience, 2018).

Assay [1] addresses T1, Ephrin type-B receptor 3 (Homo sapiens) (UniProt P54753).
T1 sequence (whole entry): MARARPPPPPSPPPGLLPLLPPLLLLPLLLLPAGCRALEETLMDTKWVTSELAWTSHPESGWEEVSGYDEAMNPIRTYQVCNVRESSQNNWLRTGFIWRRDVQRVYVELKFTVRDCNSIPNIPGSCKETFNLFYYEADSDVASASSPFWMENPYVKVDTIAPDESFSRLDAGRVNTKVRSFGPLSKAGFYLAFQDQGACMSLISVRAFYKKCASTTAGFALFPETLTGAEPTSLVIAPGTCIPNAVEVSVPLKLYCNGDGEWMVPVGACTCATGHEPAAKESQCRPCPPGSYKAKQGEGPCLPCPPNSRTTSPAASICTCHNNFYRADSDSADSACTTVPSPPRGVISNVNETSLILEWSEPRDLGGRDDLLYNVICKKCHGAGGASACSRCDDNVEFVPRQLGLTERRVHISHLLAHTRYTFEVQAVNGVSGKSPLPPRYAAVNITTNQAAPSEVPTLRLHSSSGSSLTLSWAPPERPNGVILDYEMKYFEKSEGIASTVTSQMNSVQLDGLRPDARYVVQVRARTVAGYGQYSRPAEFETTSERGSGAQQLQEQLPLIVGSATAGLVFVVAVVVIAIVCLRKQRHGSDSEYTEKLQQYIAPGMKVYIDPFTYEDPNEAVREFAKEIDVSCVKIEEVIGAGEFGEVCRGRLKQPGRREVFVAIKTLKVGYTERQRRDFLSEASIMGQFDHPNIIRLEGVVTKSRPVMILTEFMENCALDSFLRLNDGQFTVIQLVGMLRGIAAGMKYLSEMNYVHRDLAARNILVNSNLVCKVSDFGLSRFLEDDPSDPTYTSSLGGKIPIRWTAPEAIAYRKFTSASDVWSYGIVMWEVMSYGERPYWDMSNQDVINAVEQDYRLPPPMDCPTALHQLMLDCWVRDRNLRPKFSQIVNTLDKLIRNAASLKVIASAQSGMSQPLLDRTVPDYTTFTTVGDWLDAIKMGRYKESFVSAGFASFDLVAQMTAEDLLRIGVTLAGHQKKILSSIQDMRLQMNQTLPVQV
In words: Inhibition of human recombinant EphB3 at 15 nM in presence of ATP by radiometric assay relative to control.

Assay [2] has as its target Hepatocyte growth factor receptor MET (Homo sapiens) (UniProt P08581). In words: Inhibition of human recombinant MET at 15 nM in presence of ATP by radiometric assay relative to control.
In assay [3] the target is TRAF2 and NCK-interacting protein kinase (Homo sapiens) (UniProt Q9UKE5). The experiment in a line: Inhibition of human recombinant TNIK at 15 nM in presence of ATP by radiometric assay relative to control.
Assay [4] addresses Cyclin-dependent kinase 6 (Homo sapiens) (UniProt Q00534). In words: Inhibition of human recombinant CDK6 at 40 nM related to control ULK1.
The species named for another assay is Homo sapiens. The experiment in a line: Inhibition of human recombinant KHS1 at 40 nM related to control ULK1.
Assay [5] deals with Calcium/calmodulin-dependent protein kinase type 1B (Homo sapiens) (UniProt Q6P2M8). The experiment in a line: Inhibition of human recombinant CaMK1b at 40 nM in presence of ATP by radiometric assay relative to control.
Assay [6] addresses Mitogen-activated protein kinase kinase kinase kinase 4 (Homo sapiens) (UniProt O95819). In words: Inhibition of human recombinant HGK at 500 nM related to control ULK1.
In assay [7] the target is Mitogen-activated protein kinase kinase kinase 9 (Homo sapiens) (UniProt P80192). In words: Inhibition of human recombinant MLK1 at 500 nM in presence of ATP by radiometric assay relative to control.
Assay [8] concerns the target Angiopoietin-1 receptor (Homo sapiens) (UniProt Q02763). The experiment in a line: Inhibition of human recombinant Tie2 at 500 nM in presence of ATP by radiometric assay relative to control.
Assay [9] addresses T2, Serine/threonine-protein kinase Nek3 (Homo sapiens) (UniProt P51956).
T2 sequence (whole entry): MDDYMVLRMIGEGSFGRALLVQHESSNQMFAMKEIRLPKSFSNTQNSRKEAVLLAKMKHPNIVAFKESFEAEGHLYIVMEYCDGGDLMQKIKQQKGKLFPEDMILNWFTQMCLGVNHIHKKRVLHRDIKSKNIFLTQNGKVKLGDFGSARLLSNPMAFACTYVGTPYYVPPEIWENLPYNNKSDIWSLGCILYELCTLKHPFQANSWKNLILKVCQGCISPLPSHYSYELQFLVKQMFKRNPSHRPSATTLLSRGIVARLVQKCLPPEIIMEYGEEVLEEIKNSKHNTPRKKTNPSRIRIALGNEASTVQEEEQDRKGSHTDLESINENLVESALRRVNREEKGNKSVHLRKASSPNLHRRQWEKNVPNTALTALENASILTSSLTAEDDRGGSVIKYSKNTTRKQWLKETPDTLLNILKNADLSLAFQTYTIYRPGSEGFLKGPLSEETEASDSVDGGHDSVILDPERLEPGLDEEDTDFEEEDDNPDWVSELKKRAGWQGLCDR
The experiment in a line: Inhibition of human recombinant NEK3 at 500 nM related to control ULK1.

The target of assay [10] is Serine/threonine-protein kinase 35 (Homo sapiens) (UniProt Q8TDR2). The experiment in a line: Inhibition of human recombinant CLIK1 at 500 nM related to control ULK1.

Each structure is given as a SMILES string.

Chain of Hepatocyte growth factor receptor MET (Homo sapiens) (P08581 whole entry, looked up): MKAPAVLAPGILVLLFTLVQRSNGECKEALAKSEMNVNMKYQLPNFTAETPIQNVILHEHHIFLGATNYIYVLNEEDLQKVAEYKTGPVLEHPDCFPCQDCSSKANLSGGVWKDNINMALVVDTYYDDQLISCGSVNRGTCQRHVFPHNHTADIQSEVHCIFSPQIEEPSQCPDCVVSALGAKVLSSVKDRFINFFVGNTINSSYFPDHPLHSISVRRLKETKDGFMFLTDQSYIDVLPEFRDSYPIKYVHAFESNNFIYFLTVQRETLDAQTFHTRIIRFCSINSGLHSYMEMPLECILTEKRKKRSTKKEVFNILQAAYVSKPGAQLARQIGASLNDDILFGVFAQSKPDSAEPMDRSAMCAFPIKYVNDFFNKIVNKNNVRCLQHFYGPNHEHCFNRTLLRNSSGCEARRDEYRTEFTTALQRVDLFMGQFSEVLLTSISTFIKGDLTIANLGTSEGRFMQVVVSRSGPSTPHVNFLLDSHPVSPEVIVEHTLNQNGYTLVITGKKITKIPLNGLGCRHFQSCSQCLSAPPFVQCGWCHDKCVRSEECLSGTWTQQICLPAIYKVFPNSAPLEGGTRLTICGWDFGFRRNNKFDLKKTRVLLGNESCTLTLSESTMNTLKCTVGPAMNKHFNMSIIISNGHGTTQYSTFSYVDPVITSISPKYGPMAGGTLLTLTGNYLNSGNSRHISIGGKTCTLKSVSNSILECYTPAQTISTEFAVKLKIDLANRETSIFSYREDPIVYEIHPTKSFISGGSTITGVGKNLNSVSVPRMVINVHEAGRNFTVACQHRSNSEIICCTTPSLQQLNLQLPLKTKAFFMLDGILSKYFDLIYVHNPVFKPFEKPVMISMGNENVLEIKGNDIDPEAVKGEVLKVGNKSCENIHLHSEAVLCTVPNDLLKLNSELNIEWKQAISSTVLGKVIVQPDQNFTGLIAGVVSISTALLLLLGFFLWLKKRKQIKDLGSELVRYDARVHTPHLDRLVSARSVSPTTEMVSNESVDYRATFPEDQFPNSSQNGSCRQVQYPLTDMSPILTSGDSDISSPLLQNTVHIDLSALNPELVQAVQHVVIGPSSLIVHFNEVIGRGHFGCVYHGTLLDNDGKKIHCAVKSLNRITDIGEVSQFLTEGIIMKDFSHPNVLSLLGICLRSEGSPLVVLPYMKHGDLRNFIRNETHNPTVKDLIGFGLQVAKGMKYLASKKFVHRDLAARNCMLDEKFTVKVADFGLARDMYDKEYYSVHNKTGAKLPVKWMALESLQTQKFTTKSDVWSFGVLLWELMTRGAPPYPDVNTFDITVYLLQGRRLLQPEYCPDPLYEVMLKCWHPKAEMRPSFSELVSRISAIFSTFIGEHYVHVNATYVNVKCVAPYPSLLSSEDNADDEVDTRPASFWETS
Chain of TRAF2 and NCK-interacting protein kinase (Homo sapiens) (Q9UKE5 whole entry, looked up): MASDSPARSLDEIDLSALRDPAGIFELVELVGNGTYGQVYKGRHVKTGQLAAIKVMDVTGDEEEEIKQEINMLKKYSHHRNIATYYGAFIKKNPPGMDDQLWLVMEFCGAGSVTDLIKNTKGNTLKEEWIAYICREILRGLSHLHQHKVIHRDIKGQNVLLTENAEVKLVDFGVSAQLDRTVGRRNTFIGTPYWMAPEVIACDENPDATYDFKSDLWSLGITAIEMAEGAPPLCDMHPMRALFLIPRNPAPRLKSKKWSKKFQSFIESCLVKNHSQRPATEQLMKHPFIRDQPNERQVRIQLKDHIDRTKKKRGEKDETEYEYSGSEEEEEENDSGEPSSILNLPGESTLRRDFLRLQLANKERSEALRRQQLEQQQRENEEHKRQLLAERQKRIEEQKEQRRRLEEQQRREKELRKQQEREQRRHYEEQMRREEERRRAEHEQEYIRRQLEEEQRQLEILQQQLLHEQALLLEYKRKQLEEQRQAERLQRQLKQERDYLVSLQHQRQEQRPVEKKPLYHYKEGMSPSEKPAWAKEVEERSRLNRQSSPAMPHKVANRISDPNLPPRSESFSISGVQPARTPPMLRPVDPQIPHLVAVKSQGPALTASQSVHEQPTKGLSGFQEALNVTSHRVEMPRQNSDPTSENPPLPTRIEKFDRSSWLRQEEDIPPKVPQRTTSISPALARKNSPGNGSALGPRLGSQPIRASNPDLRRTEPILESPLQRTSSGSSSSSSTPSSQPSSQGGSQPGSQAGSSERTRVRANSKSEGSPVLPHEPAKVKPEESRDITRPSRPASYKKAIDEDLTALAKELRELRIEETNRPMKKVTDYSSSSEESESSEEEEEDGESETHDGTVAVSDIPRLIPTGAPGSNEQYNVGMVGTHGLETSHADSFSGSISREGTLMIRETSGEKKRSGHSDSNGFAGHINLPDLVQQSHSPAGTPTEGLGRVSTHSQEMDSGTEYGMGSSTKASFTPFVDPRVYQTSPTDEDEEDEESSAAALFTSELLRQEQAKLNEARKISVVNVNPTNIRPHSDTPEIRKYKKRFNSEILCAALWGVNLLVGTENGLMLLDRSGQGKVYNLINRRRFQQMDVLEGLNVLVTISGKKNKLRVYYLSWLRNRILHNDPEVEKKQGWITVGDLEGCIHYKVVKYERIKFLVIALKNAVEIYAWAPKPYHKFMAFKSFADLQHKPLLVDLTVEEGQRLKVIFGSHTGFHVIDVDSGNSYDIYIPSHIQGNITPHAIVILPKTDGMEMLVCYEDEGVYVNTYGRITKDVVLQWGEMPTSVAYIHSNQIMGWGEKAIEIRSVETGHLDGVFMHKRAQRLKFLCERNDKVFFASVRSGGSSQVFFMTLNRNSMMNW
Chain of Cyclin-dependent kinase 6 (Homo sapiens) (Q00534 whole entry): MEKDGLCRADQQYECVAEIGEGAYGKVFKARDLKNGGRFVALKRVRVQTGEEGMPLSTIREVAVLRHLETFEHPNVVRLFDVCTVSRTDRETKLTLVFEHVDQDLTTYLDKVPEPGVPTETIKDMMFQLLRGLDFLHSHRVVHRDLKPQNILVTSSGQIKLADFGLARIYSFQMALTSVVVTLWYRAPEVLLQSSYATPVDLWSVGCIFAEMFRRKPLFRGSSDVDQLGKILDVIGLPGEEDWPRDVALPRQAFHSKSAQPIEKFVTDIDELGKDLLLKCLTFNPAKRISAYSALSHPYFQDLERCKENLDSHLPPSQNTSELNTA
Chain of Mitogen-activated protein kinase kinase kinase kinase 4 (Homo sapiens) (O95819 2-1239 limits assumed): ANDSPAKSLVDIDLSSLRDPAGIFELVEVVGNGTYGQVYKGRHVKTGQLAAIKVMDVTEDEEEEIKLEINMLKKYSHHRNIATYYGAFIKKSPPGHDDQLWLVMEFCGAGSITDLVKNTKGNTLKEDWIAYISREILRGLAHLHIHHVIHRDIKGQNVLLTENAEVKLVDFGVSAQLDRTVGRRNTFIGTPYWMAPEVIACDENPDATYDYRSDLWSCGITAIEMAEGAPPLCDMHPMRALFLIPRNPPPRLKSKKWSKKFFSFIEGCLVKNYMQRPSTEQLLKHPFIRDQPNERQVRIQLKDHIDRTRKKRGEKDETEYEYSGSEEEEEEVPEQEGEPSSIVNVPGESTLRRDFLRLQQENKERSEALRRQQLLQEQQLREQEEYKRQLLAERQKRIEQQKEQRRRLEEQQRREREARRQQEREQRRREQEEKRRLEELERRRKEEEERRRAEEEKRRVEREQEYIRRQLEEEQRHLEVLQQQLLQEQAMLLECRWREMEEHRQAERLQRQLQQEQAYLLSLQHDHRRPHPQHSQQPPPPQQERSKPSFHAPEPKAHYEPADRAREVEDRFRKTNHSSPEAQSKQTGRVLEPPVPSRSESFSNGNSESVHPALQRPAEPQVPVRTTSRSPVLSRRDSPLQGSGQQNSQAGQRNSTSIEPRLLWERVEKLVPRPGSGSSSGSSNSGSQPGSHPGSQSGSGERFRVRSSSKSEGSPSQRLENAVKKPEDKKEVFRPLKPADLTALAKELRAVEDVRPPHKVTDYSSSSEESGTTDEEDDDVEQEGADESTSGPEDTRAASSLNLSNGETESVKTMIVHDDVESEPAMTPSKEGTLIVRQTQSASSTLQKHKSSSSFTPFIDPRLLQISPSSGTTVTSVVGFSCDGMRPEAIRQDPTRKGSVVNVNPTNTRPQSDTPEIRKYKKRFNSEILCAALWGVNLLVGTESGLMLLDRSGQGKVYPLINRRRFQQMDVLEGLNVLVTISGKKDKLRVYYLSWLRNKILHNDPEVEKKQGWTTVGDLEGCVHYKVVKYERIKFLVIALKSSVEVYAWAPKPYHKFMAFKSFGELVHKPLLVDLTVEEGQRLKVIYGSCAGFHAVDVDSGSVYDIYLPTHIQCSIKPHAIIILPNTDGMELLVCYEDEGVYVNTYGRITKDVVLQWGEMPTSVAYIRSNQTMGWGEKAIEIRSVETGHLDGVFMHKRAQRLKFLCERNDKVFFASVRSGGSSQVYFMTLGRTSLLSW
Chain of Serine/threonine-protein kinase 35 (Homo sapiens) (Q8TDR2 whole entry): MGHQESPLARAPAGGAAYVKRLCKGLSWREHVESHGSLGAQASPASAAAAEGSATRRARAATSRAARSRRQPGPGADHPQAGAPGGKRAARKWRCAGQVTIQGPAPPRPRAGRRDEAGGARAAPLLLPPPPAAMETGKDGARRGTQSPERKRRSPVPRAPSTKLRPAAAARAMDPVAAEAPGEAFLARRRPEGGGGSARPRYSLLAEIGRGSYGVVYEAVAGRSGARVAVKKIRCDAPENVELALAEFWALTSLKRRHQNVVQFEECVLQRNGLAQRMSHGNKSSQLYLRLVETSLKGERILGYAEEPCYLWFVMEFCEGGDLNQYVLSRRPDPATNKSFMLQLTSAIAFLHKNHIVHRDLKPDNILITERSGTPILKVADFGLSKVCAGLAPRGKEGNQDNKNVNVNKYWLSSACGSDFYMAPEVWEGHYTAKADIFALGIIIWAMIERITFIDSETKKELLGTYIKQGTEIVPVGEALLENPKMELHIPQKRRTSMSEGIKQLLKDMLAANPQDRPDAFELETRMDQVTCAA

Turning to `CC(C)[C@H](NC(=O)c1cc(-c2cnn3cc(-c4ccc(OCCN5CCCCC5)cc4)cnc23)cs1)C(F)(F)F`, the values for the inhibition in [1], in assay [2] and in assay [3] were 0%, 0% and 5%, respectively.
For `O=C(N[C@@H](C1CC1)C(F)(F)F)c1cc(-c2cnn3cc(-c4ccc(F)cc4)cnc23)cs1`, the fold change (FC) is 0.04 in [4] and 0 in the assay filed under Homo sapiens. Also, the inhibition in assay [5] stood at 0%.
In the case of `CNC(=O)c1ccccc1Oc1nc(Nc2cc(OC)c(OC)c(OC)c2)ncc1Br`, the fold change (FC) stood at 0 in [6], 0.09 in [9] and 0.04 in assay [10]. In addition, the inhibition came out at 87% in [7] and 23% in [8].

A word on the inhibition: it is the relative decrease from the control value, in per cent.
